The values below come from publication PMC5000756, “Involvement of Three Esterase Genes from Panonychus citri (McGregor) in Fenpropathrin Resistance” (International Journal of Molecular Sciences, 2016).

The assay concerns the target T1, PcE1 (Panonychus citri, UniProt D7NHW8).
T1 construct: ORF in pFastBac HTA, baculovirus-infected Sf9 cells; supernatant of cell homogenate
T1 sequence (D7NHW8 19-550): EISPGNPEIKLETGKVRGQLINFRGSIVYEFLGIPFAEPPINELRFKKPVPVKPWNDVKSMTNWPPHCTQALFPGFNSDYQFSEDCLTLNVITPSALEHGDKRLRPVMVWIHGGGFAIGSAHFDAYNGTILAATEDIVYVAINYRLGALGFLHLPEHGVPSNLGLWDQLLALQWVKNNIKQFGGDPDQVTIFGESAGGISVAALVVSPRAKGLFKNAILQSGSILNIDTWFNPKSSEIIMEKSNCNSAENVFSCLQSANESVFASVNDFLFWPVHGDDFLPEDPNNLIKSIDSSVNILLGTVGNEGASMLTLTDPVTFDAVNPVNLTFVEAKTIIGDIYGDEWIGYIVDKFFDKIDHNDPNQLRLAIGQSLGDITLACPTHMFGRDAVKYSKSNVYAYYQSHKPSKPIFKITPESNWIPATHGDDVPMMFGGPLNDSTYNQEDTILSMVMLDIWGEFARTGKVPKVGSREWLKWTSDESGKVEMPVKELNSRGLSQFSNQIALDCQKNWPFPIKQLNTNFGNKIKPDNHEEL
Description: spectrophotometric, fast blue coupling, […] nm. It is filed as biochemical. The conditions noted are these: Sf9 cell lysate versus GFP control; pH 7.0, 30 °C.

As to `CC(=O)Oc1cccc2ccccc12` [α-naphthyl acetate], the “spectrophotometric, fast blue coupling, 600 nm” value is recorded as “All recombinant proteins showed significant catalytic activities when α-NA was used as the substrate”.
